Source: PMC8465290, “Zoledronic Acid as a Novel Dual Blocker of KIR6.1/2-SUR2 Subunits of ATP-Sensitive K^+ Channels: Role in the Adverse Drug Reactions” (Pharmaceutics, 2021)

Assays:
[1] = tested on: KATP channels of femora primary bone cells; experiment: KATP currents in cell-attached patches of femora (long bone) primary bone cells; assay type: cell-based, mice; conditions: for IC50 / Imax % / Slope: Femora primary bone cells, cell-attached patches
Procedure: (§1) The culture of primary bone cells from adult mice was obtained from long bones (tibia and femur) and calvaria, as previously described. Bones were collected, cleaned, and flushed for removing the internal bone marrow cells. Small bone pieces of around 1 mm^3 were treated with trypsin-EDTA 0.25% (w/v) for 1 h and with 0.2% collagenase solution for an additional hour in a shaking water bath to remove all remaining soft tissue and adherent cells. Clean bone pieces have been cultured in basal medium enriched with 50 µg/mL of ascorbic acid. Osteoblasts from femora (Figure S1A, Supplementary Material) and calvaria chips (Figure S1B) were positive to Alizarin red staining (Figure S1C). The marker of osteoblasts was positive, as tested by the PCR expression analysis on cell pellets (Figure S1D).
(§2) The solutions for whole-cell and cell attached patches were as follows. The pipette solution contained 132 mM KCl, 1 mM ethylene glycol-bis(β-aminoethylether)-N,N,N′,N′-tetraaceticacid (EGTA), 10 mM NaCl, 2 mM MgCl2, 10 mM HEPES, 1 mM Na2ATP, and 0.3 mM Na2GDP (pH = 7.2). The bath solution contained 142 mM NaCl, 2.8 mM KCl, 1 mM CaCl2, 1 mM MgCl2, 11 mM glucose, and 10 mM HEPES (pH = 7.4).
(§3) The whole-cell and cell-attached patch-clamp experiments were performed in asymmetrical K^+ ion concentration in physiological conditions using pipettes with the resistance of 3–5 MΩ.
(§4) Drug actions on the channel currents recorded during instantaneous I/V relationships were investigated by applying a depolarization protocol, in response to voltage pulses from −180 mV to +100 mV (Vm) in 20 mV steps. Currents were expressed as densities (pA/pF) to control for cell size/capacitance differences. All experiments were performed at room temperature (20–22 °C) and sampled at 2 kHz (filter = 1 kHz) using an Axopatch-1D amplifier equipped with a CV-4 headstage (Axon Instruments; Foster City, CA, USA). Drug solutions were applied using a fast perfusion system during the continuous monitoring of the seal resistance at 18–22 °C room temperature in excised patches. In whole-cell and cell-attached patch-clamp experiments, before recording, the cells were equilibrated for 10 s with the solution. Data acquisition and analysis were performed using pCLAMP 10 software suite (Axon Instruments; Foster City, CA, USA), as previously described. Seal resistance was continuously monitored during the experiment.
The percentage of KATP current inhibition induced by ZOL was calculated as (I CTRL-I drug)/(I CTRL-I BaCl2) × −100. The concentration response data of ZOL against different KATP channel currents were fitted by an algorithm using the non-linear dynamic fitting routine of Sigma Plot, 10.0.

[2] = tested on: KATP channels of calvaria primary bone cells; experiment: KATP currents in cell-attached patches of calvaria primary bone cells; assay type: cell-based, mice
Procedure: as §1, §2, §3
Drug actions on the channel currents recorded during instantaneous I/V relationships were investigated by applying a depolarization protocol, in response to voltage pulses from −180 mV to +100 mV (Vm) in 20 mV steps. Currents were expressed as densities (pA/pF) to control for cell size/capacitance differences. All experiments were performed at room temperature (20–22 °C) and sampled at 2 kHz (filter = 1 kHz) using an Axopatch-1D amplifier equipped with a CV-4 headstage (Axon Instruments; Foster City, CA, USA). […] Seal resistance was continuously monitored during the experiment.
(§5) The percentage of KATP current inhibition induced by ZOL was calculated as (I CTRL-I drug)/(I CTRL-I BaCl2) × −100. […]

[3] = design: method as in PMID 24330023; conditions: multiple myeloma patients ref 9; cited from earlier work
[4] = target: T1, KIR6.1-SUR2B (Homo sapiens, UniProt O60706+Q15842); experiment: Whole-cell current of recombinant KIR6.1-SUR2B in Hek293 cells; assay type: cell-based
T1 construct: expressed in transfected cells; host or cells: Hek293
Procedure: (§6) For experiments on recombinant channel subunits, Hek293 cells were transfected with the relevant plasmids, as previously described.
as §2
(§7) CaCl2 was added to the pipette solutions to give a free Ca^2+ ion concentration of 1.6 × 10^−6 M in whole-cell experiments. The calculation of the free Ca^2+ ion concentration in the pipette was performed using the MaxChelator software (Stanford University; Stanford, CA, USA).
as §3
as §4, with “Data acquisition and analysis were performed using pCLAMP 10 software suite (Axon Instruments; Foster City, CA, USA), as previously described.” left out
as §5

[5] = tested on: KATP channels of Soleus (SOL) muscle fibers; experiment: KATP currents in excised macro-patches from SOL muscle fibers (patch-clamp); assay type: cell-based, mice; conditions: excised macropatches
Description: (§8) In accordance with 3R RULE (DIRECTIVE 2010/63/EU) Replace, Reduce, Refine, bone and skeletal muscle were collected from wild-type male mice C57BL sacrificed for other scientific purposes (Ethic Committee name, Organization for Animal Health O.P.B.A. University of Bari, Italy, project: 7282018PR). The fibers were enzymatically isolated from Extensor digitorum longus (EDL) and Soleus (SOL) muscles, as previously described.
(§9) The solutions for excised patch experiments on isolated muscle fibers were as follows. The patch-pipette solution contained 150 mM KCl, 2 mM CaCl2, and 1 mM Mops (pH 7.2); the bath solution contained 150 mM KCl, 5 mM EGTA, and 10 mM Mops (pH 7.2).
(§10) The KATP currents of native skeletal muscle fibers were recorded in excised macro patches using pipettes of 0.9–1.2 MΩ of resistance on isolated skeletal muscle fibers in symmetrical 150 mM K^+ ions concentrations on both sides of the membrane during pulse going from 0 mV to −60 mV (Vm), as previously described.
as §4, with “Data acquisition and analysis were performed using pCLAMP 10 software suite (Axon Instruments; Foster City, CA, USA), as previously described.” left out
as §5

[6] = target: T2, KIR6.2-SUR2A (Homo sapiens, UniProt O60706+Q14654); experiment: Whole-cell current of recombinant KIR6.2-SUR2A in Hek293 cells; assay type: cell-based
T2 construct: expressed in transfected cells; host or cells: Hek293
Procedure: as §6, §2, §7, §3
as §4, with “Data acquisition and analysis were performed using pCLAMP 10 software suite (Axon Instruments; Foster City, CA, USA), as previously described.” left out
as §5

[7] = target: T3, KIR6.1-SUR1 (Homo sapiens, UniProt Q09428+Q15842); experiment: Whole-cell current of recombinant KIR6.1-SUR1 in Hek293 cells; assay type: cell-based; conditions: Hek293 cells KIR6.1-SUR1, whole-cell, −60 mV
T3 construct: expressed in transfected cells; host or cells: Hek293
Procedure: as §6, §2
CaCl2 was added to the pipette solutions to give a free Ca^2+ ion concentration of 1.6 × 10^−6 M in whole-cell experiments. The calculation of the free Ca^2+ ion concentration in the pipette was performed using the MaxChelator software (Stanford University; Stanford, CA, USA). […]
Drug actions on the channel currents recorded during instantaneous I/V relationships were investigated by applying a depolarization protocol, in response to voltage pulses from −180 mV to +100 mV (Vm) in 20 mV steps. Currents were expressed as densities (pA/pF) to control for cell size/capacitance differences. […] Seal resistance was continuously monitored during the experiment.
as §5

[8] = target: T4, KATP channels of Extensor digitorum longus (EDL) muscle fibers (Mus musculus, UniProt P70170+Q61743); experiment: KATP currents in excised macro-patches from EDL muscle fibers (patch-clamp); assay type: cell-based, mice; conditions: excised macropatches
T4 construct: The KATP currents of native skeletal muscle fibers were recorded in excised macro patches; from tissue; host or cells: isolated Extensor digitorum longus muscle fibers of C57BL mice
Description: as §8, §9, §10
as §4, with “Data acquisition and analysis were performed using pCLAMP 10 software suite (Axon Instruments; Foster City, CA, USA), as previously described.” left out
as §5

[9] = design: method as in EudraVigilance database; conditions: cited from earlier work
[10] = Pharmacovigilance analysis of A.D.R. in EudraVigilance database; design: species or system human
Description: All coding preferred terms per System Organ Class (S.O.C.) were screened in the EudraVigilance database (http://www.adrreports.eu/ accessed on 1 May 2021), and those potentially associated with KATP channel blocking actions were reported and subject to analysis.
The data were extracted from EudraVigilance, collected, and analyzed on Microsoft 365 Excel software package (Microsoft 10.00). The not specified category was not included in the calculation. The duplication of a specific report per S.O.C. was evaluated manually and excluded from the analysis.
The Proportional Reporting Ratio (P.R.R.) was calculated using the following equation: a/(a+c)/b/(b + d) where a is the reaction of interest to a given drug of interest, b is the reaction of interest for all other drugs in the class, c are all other reactions to a given drug of interest, and d are all other reactions to all other drugs in the class. Signal definition: P.R.R. ≥ 2, a minimum of three ratios/cases for the reaction of interest, X^2 ≥ 4. No signal is identified if P.R.R. is = 1 [47].

[11] = target: T5, KIR6.2-SUR1 (Homo sapiens, UniProt Q09428+Q14654); experiment: Whole-cell current of recombinant KIR6.2-SUR1 in Hek293 cells; assay type: cell-based; conditions: Hek293 cells KIR6.2-SUR1, whole-cell
T5 construct: expressed in transfected cells; host or cells: Hek293
Procedure: as §6, §2, §7, §3
as §4, with “Data acquisition and analysis were performed using pCLAMP 10 software suite (Axon Instruments; Foster City, CA, USA), as previously described.” left out
as §5

[12] = all ages ref EudraVigilance database
[13] = musculoskeletal and connective tissues disorders S.O.C.
[14] = within the KATP channel blockers

T4 sequence (Q61743 whole entry): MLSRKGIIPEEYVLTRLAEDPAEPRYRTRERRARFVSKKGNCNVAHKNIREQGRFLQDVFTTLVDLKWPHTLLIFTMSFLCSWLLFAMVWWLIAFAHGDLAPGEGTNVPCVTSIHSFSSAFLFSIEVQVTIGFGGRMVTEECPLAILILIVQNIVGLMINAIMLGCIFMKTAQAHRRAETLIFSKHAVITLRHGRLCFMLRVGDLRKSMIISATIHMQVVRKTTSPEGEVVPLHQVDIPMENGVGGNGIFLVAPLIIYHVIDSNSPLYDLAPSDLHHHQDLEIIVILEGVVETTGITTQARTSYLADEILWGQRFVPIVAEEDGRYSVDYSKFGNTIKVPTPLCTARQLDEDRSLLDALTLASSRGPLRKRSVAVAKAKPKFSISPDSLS
T4 sequence (P70170 whole entry): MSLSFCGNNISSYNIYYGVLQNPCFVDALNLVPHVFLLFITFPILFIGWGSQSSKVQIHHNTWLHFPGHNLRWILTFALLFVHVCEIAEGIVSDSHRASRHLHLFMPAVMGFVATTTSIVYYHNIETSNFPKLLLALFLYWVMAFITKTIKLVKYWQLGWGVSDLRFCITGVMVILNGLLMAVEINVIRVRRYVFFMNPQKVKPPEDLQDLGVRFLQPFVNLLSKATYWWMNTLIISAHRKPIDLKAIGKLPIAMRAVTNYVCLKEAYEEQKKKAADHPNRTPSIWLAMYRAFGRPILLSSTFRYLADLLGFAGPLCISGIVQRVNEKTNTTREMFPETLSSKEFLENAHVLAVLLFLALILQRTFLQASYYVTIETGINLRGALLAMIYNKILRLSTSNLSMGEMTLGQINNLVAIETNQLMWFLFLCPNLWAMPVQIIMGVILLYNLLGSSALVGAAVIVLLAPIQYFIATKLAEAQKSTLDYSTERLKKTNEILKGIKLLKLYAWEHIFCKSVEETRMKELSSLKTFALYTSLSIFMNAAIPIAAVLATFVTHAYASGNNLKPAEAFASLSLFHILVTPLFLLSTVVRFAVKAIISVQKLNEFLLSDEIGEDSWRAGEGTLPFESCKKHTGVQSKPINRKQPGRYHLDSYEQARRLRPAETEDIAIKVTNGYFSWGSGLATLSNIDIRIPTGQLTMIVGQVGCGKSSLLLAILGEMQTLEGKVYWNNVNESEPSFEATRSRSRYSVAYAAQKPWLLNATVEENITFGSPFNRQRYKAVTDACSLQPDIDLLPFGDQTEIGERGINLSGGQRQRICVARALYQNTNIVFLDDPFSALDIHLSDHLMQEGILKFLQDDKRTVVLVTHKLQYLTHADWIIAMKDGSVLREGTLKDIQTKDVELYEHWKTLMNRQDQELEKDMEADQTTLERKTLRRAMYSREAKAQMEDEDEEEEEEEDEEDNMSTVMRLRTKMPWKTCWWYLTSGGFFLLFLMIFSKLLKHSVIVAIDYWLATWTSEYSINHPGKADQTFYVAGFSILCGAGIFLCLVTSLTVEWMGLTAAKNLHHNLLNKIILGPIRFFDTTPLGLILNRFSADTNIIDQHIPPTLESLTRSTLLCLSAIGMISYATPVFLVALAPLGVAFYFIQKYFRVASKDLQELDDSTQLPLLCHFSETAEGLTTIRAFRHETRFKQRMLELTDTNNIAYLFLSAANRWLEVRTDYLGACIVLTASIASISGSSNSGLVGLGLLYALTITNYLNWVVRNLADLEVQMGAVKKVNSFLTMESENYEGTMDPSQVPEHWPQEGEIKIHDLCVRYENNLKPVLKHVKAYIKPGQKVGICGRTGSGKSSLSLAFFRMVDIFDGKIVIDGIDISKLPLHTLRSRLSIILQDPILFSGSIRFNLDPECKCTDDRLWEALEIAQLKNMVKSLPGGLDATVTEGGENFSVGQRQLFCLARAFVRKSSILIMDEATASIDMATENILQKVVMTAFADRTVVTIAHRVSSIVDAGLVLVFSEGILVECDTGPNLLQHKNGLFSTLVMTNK
T1 sequence (Q15842 whole entry): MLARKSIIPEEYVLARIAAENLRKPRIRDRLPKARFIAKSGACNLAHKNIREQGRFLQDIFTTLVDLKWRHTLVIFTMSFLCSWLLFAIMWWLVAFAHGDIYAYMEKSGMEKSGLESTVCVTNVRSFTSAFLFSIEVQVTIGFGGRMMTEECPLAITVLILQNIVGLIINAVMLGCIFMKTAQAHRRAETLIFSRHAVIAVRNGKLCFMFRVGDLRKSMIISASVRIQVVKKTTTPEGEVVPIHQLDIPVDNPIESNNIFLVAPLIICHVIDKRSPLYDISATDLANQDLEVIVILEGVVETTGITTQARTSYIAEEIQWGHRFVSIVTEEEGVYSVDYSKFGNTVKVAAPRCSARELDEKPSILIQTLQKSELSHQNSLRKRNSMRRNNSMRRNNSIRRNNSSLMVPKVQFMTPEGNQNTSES
T1 sequence (O60706 1-1549 isoform O60706-2): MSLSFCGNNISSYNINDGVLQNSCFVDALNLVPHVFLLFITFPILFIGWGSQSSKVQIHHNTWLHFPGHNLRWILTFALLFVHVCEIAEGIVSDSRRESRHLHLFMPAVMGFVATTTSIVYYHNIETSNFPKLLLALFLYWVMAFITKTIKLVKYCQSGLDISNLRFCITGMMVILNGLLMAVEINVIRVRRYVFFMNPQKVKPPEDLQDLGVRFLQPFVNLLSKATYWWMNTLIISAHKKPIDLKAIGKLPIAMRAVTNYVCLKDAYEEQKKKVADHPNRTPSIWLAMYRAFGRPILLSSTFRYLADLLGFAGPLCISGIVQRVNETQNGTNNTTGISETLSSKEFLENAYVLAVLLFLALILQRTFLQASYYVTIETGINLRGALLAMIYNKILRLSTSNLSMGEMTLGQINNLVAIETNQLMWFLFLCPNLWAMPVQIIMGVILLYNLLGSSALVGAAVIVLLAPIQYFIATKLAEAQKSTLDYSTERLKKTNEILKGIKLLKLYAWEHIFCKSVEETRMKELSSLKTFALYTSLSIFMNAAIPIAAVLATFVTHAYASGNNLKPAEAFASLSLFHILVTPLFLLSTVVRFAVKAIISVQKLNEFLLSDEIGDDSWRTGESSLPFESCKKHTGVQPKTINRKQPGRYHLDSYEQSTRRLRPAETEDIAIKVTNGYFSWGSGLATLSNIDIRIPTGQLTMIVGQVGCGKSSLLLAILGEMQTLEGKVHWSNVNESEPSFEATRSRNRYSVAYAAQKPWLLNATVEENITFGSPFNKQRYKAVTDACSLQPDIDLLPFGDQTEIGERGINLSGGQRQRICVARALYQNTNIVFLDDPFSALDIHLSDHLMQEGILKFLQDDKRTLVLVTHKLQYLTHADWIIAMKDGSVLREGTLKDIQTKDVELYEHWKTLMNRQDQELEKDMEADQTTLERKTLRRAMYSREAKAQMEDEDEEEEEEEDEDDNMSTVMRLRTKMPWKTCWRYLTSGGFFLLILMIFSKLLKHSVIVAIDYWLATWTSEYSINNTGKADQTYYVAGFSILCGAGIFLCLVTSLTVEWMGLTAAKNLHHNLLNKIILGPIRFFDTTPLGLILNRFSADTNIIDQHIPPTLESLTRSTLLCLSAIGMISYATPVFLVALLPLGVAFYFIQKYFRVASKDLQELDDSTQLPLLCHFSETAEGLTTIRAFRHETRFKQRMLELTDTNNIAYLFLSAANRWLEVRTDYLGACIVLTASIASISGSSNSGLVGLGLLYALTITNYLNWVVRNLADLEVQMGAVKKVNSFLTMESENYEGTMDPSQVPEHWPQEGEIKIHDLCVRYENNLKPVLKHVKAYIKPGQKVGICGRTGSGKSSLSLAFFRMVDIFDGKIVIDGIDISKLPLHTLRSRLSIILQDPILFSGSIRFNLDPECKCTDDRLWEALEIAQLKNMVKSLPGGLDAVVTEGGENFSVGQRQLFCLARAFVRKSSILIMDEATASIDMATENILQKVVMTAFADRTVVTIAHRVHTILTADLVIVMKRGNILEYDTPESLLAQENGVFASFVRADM

With `COc1ccc(Cl)cc1C(=O)NCCc1ccc(S(=O)(=O)NC(=O)NC2CCCCC2)cc1` [Glibenclamide, 5-chloro-N-(2-{4-[(cyclohexylcarbamoyl)sulfamoyl]phenyl}ethyl)-2-methoxybenzamide] the “inhibition of KATP currents in C-A patches (in words)” value ([1]; C-A patches, nanomolar concentrations, Figure 1C) was “markedly reduced”, the IC50 [1] was 5.07 nM and the Imax % [1] was −88.32 ± 21 n = 13 cells %. For the same molecule, the Slope [1] was 0.4 ± 0.08, the IC50 [2] was 10.2 nM and the Imax % [2] was −93 ± 14 n = 18 cells %. The Slope [2] was 0.5 ± 0.03.
`O=P(O)(O)C(O)(Cn1ccnc1)P(=O)(O)O` [Zoledronic acid] gave an IC50 [1] of 0.16 nM, an Imax % [1] of −104.8 ± 8.7 n = 21 cells % and a Slope [1] of 0.31 ± 0.07. The median overall survival [3] was 52 months, the IC50 [4] was 0.39 nM and the Slope [4] was 0.59 ± 0.04. For the same molecule, the Imax % ([4]; −60 mV) was −94 ± 4.8 n = 15 cells %, the IC50 [5] was 0.21 nM and the Slope ([5]; concentration-response fit) was 0.29 ± 0.05. For the same molecule, the Imax % ([5]; −60 mV, symmetrical 150 mM K+) was −99.4 ± 5 n = 21 fibers %, the IC50 [6] was 7100 nM and the Slope [6] was “* 0.12 ± 0.7”. The Imax % ([6]; −60 mV) was −83.7 ± 1.2 n = 15 cells %, the Imax % [7] was “* −40 ± 8.8 n = 3 cells %” and the IC50 [8] was 1200 nM. The Slope ([8]; concentration-response fit) was 0.38 ± 0.07, the Imax % ([8]; −60 mV, symmetrical 150 mM K+) was −100.1 ± 9.3 n = 17 fibers % and the “osteonecrosis of the jaw, affected females” value [9, 12] was 4792. For the same molecule, the “osteonecrosis of the jaw, affected males” value [9, 12] was 3184, the “adverse reaction cases reported” value ([9]; all indications, up to 1 May 2021 ref EudraVigilance database) was 35,201 cases and the “arrhythmia, number of reports” value ([9]; cardiac A.D.R. ref EudraVigilance database) was 197. For the same molecule, the “hypoglycemia, % of the A.D.R. per S.O.C.” value [10] was 1.63%, the “arrhythmia, % of cardiac A.D.R.” value ([10]; cardiac A.D.R.) was 8.1% and the “atrial fibrillation, % of cardiac A.D.R.” value ([10]; cardiac A.D.R.) was 17.9%. The “congestive heart failure, % of cardiac A.D.R.” value ([10]; cardiac A.D.R.) was 12.6%, the “myocardial infarction, % of cardiac A.D.R.” value ([10]; cardiac A.D.R.) was 12% and the “palpitations, % of cardiac A.D.R.” value ([10]; cardiac A.D.R.) was 13.2%. For the same molecule, the “sinus tachycardia, % of cardiac A.D.R.” value ([10]; cardiac A.D.R.) was 5.3%, the “tachycardia, % of cardiac A.D.R.” value ([10]; cardiac A.D.R.) was 12.2% and the “arthralgia, % of the A.D.R.” value [10, 13] was 16%. The “muscular weakness, % of the A.D.R. per S.O.C.” value [10, 13] was 2.7%, the “myalgia, % of the A.D.R.” value [10, 13] was 10% and the “osteonecrosis of the jaw, % of the total A.D.R.” value [10, 13] was 47.9%. For the same molecule, the “blood pressure increase, % of A.D.R.” value ([10]; vascular S.O.C.) was 16%, the “hypertension, % of A.D.R.” value ([10]; vascular S.O.C.) was 25% and the “hypotension, % of A.D.R.” value ([10]; vascular S.O.C.) was 18%. The “Proportional Reporting Ratio (P.R.R.) arrhythmias” value [10, 14] was no less than 2, the “Proportional Reporting Ratio (P.R.R.) atrial fibrillation” value [10, 14] was no less than 2 and the “Proportional Reporting Ratio (P.R.R.) diarrhea” value [10, 14] was no less than 2. The “Proportional Reporting Ratio (P.R.R.) hypertension” value [10, 14] was no less than 2, the “Proportional Reporting Ratio (P.R.R.) hypoglycemia” value [10, 14] was “lower risk” and the “Proportional Reporting Ratio (P.R.R.) muscular weakness” value [10, 14] was no less than 2. The “Proportional Reporting Ratio (P.R.R.) myalgia” value [10, 14] was no less than 2, the “Proportional Reporting Ratio (P.R.R.) osteonecrosis of jaw” value [10, 14] was no less than 2 and the “Proportional Reporting Ratio (P.R.R.) rhabdomyolysis” value [10, 14] was “lower risk”. The IC50 [11] was 21000 nM, the Slope [11] was “* 0.18 ± 0.09” and the Imax % ([11]; −60 mV) was “* −60.13 ± 4.1 n = 15 cells %”.
For `Cc1ccc(S(=O)(=O)NC(=O)NN2CC3CCCC3C2)cc1` (centres unmarked) [gliclazide], the “Proportional Reporting Ratio (P.R.R.) muscular weakness” value [10, 14] was no less than 2.
